Experimental data taken from PubChem BioAssay (NCI).
Values joined by “and” are separate entries in the source; they are usually repeats but may differ in a detail not shown here. Identical values can stand only once.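 Dose response: 5 concentrations. Exposure: 48 h. Format: 96-well plates. Endpoint: linear interpolation; highest concentration if not reached. GI50 is the concentration that inhibits growth by half. At the TGI there is no net growth.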

Experiments:
Assay in all cases: NCI-60 cell line screen, 48 h
HOP-62 NSCLC = system: HOP-62 NSCLC
HOP-92 NSCLC = system: HOP-92 NSCLC
MDA-N = system: MDA-N
NCI-H460 lung = system: NCI-H460 lung
OVCAR-5 ovarian = system: OVCAR-5 ovarian
RPMI-8226 leukemia = system: RPMI-8226 leukemia
SNB-75 CNS = system: SNB-75 CNS
MOLT-4 leukemia = system: MOLT-4 leukemia
NCI-H522 lung = system: NCI-H522 lung
U251 CNS = system: U251 CNS

Compound	TGI (HOP-62 NSCLC)	TGI (HOP-92 NSCLC)	TGI (MDA-N)	TGI (NCI-H460 lung)	TGI (OVCAR-5 ovarian)	TGI (RPMI-8226 leukemia)	TGI (SNB-75 CNS)	TGI (MOLT-4 leukemia)	TGI (NCI-H522 lung)	TGI (U251 CNS)	GI50 (HOP-62 NSCLC)	GI50 (HOP-92 NSCLC)	GI50 (MOLT-4 leukemia)	GI50 (NCI-H522 lung)	GI50 (RPMI-8226 leukemia)	GI50 (U251 CNS)	GI50 (SNB-75 CNS)	GI50 (NCI-H460 lung)	GI50 (OVCAR-5 ovarian)
CCN(CC)CCCNC(=O)c1cc2cc(NC(=O)c3cc4cc([N+](=O)[O-])ccc4[nH]3)ccc2[nH]1	93.4 µM	> 100 µM	> 100 µM	> 100 µM	> 100 µM	> 100 µM	> 100 µM												
O=S(=O)(O)c1cccc2cccc(N=Nc3c(O)ccc4ccccc34)c12	> 100 µM	> 100 µM	> 100 µM	> 100 µM	> 100 µM		> 100 µM	> 100 µM	> 100 µM	> 100 µM									
C=C1[C@@](C)([C@@H]2CCCS2)[C@H]2C(C)=C[C@]1(C)n1c(=O)n(-c3ccccc3)c(=O)n12	> 100 µM		> 100 µM	> 100 µM	> 100 µM	> 100 µM	> 100 µM	> 100 µM	> 100 µM	> 100 µM									
CC(=O)OC12c3ccccc3C(c3ccccc31)C1C(=O)N(c3ccccn3)C(=O)C12 (stereo not drawn)	> 100 µM				> 100 µM	> 100 µM	> 100 µM	> 100 µM		> 100 µM									
Cc1cccc2c1c1ccc3c(c1n2C)C(=O)C=CC3=O	37.8 µM	4.34 µM		37.8 µM	29.5 µM	13.2 µM	42.8 µM	2.99 µM	2.97 µM	25.8 µM									
CCOC(=O)C(C)Sc1nnc(COc2ccccc2OC)n1-c1ccccc1 (stereo not drawn)	> 100 µM	> 100 µM		32.2 µM	> 100 µM	59.9 µM	> 100 µM		> 100 µM	> 100 µM									
COC(=O)C(=O)C(C(=O)C(=O)Nc1cccc([N+](=O)[O-])c1)c1nc2ccc(Cl)cc2[nH]c1=O (stereo not drawn)	> 100 µM	> 100 µM	> 100 µM	> 100 µM	> 100 µM		> 100 µM	> 100 µM	> 100 µM	> 100 µM									
COC(=O)CC(C(C(=O)OCc1ccccc1)C(C)O)N1C(=O)OC(c2ccccc2)C1c1ccccc1 (stereo not drawn)	> 100 µM			> 100 µM		> 100 µM		> 100 µM		> 100 µM									
CCSCN(C)c1nc(N(C)C)nc(N(C)C)n1	> 100 µM	> 100 µM		> 100 µM	> 100 µM	> 100 µM	> 100 µM	> 100 µM	91.4 µM	> 100 µM									
CCCc1c(C(=O)OCC)[nH]c(-c2ccc(-c3[nH]c(C(=O)OCC)c(CCC)c3C(=O)OCC)s2)c1C(=O)OCC		85.2 µM		> 100 µM	> 100 µM	> 100 µM	58 µM	> 100 µM	> 100 µM	> 100 µM									
CCOc1ccc(N=NC2C(=O)N(C(=O)CC(=O)Nc3ccccc3)N=C2C)cc1 (stereo not drawn)	> 100 µM	90.7 µM	21.5 µM	> 100 µM	> 100 µM		> 100 µM	> 100 µM	> 100 µM	> 100 µM									
COc1cc(C2C(Cl)C(=O)N2NC(=O)c2ccc(NC(C)=O)cc2)ccc1O (stereo not drawn)	> 100 µM	> 100 µM		> 100 µM	> 100 µM	> 100 µM		> 100 µM	> 100 µM	> 100 µM									
CC1(C)CC2(C)CC1CC2(O)c1ccccc1 (stereo not drawn)	> 100 µM	> 100 µM	> 100 µM	> 100 µM	> 100 µM		> 100 µM	> 100 µM	> 100 µM	> 100 µM									
N=C(N)SCCC(=O)CCSC(=N)N		> 100 µM	> 100 µM	> 100 µM			> 100 µM	> 100 µM	> 100 µM	> 100 µM									
N#C/C(=C\c1ccc([N+](=O)[O-])s1)c1nc2cc(Cl)ccc2s1	5.44 µM	1.6 µM				3.26 µM		> 100 µM	3.56 µM	3.02 µM	1.83 µM	0.287 µM	2.11 µM	1.18 µM	0.675 µM	0.599 µM			
COCC1OC(S(=O)(=O)c2ccccc2)C(O)C(OC)C1OC (stereo not drawn)	> 100 µM		> 100 µM	> 100 µM	> 100 µM		> 100 µM	> 100 µM	> 100 µM	> 100 µM							> 100 µM and 12.1 µM		
CS(=O)(=O)c1nc(-c2cc3c(c(S(C)(=O)=O)n2)CCC3)cc2c1CCCC2	78.6 µM		> 100 µM		> 100 µM	> 100 µM	23.4 µM	> 100 µM	45.9 µM	> 100 µM									
COc1ccc(C(Cc2ccccc2)C2NC(=S)NC2=O)cc1 (stereo not drawn)	> 25 µM	> 25 µM		> 25 µM	> 25 µM	> 25 µM	> 25 µM	> 25 µM	> 25 µM	> 25 µM									
C=C(C)C1CC/C(C)=C/CC[C@]2(C)O[C@@H]2CCC2=CC1OC2=O (stereo partly drawn)	> 100 µM	> 100 µM		> 100 µM	> 100 µM	22.2 µM		30.6 µM	> 100 µM	> 100 µM	> 100 µM	14.4 µM	12.1 µM	> 100 µM	10.5 µM	21.7 µM		> 100 µM	0.635 µM
CN(C)CCNC(=O)c1cccc2cc3cc(O)ccc3nc12	2.94 µM	3.81 µM		2.16 µM	4.32 µM	5.46 µM	6.31 µM	3.17 µM		4.46 µM									
Nc1ccc(Nc2cc(=O)[nH]c(=O)[nH]2)cc1	> 100 µM		> 100 µM	> 100 µM		> 100 µM		> 100 µM	> 100 µM	> 100 µM									
O=NN(CCF)C(=O)NC1CC2CCC1C2 (stereo not drawn)	97.7 µM	> 100 µM		> 100 µM	> 100 µM	> 87.7 µM	> 100 µM	> 100 µM	> 100 µM	> 100 µM									
O=c1c2ccccc2nc(-c2ccccc2)n1NC(=S)Nc1ccc(Cl)cc1	> 100 µM	> 100 µM		> 100 µM	> 100 µM	> 100 µM	> 100 µM	> 100 µM	> 100 µM	> 100 µM									
CN(C)c1ccc(/C=C/C(=O)N[C@@H]2C(=O)N3[C@@H]2SC(C)(C)[C@@H]3C(=O)O)cc1	> 100 µM		> 100 µM	> 100 µM	> 100 µM	> 100 µM	> 100 µM	> 100 µM	> 100 µM	> 100 µM									
